Data on one molecule can be found in publication PMC3699191 (Journal of medicinal chemistry, 2010).

The target in this test is mCB2 (membranes from HEK293 cells expressing mouse CB2) (Mus musculus, UniProt P47936). Nature of the test: Mouse CB2 binding assay, [3H]CP-55,940 competition. The following applies: CB2 over CB1.
Chain of mCB2 (membranes from HEK293 cells expressing mouse CB2) (P47936 whole entry): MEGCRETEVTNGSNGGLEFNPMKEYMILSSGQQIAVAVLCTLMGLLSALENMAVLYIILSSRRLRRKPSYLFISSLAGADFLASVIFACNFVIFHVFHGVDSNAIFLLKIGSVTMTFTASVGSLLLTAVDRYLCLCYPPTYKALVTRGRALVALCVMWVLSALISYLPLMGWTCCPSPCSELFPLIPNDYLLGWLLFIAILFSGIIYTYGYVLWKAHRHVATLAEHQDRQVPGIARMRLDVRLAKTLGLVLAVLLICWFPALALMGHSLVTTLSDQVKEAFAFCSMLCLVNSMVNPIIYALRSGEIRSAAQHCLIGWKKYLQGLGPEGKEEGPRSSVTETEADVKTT

For the molecule `CC1(C)Oc2cc(C34CC5CC(CC(C5)O3)C4)cc(O)c2[C@@H]2C[C@H](O)CC[C@H]21` [compound 16], the “selectivity for CB2” value was 2 fold.
